From patent US4489090A, “Dibenzocycloalkanamido and dibenzothioxanthenyl benzoic acids” (American Cyanamid Company, priority 1983, dated 1984)

Molecular target: T1, fatty acyl CoA:cholesterol acyl transferase (ACAT) (Rattus norvegicus, UniProt O70536)
T1 construct: The supernatant, containing the microsomal fraction, served as the source of the cholesterol-esterifying enzyme; from tissue; host or cells: rat adrenals, homogenate supernatant (1,000 x g) containing the microsomal fraction
T1 sequence (O70536 1-545): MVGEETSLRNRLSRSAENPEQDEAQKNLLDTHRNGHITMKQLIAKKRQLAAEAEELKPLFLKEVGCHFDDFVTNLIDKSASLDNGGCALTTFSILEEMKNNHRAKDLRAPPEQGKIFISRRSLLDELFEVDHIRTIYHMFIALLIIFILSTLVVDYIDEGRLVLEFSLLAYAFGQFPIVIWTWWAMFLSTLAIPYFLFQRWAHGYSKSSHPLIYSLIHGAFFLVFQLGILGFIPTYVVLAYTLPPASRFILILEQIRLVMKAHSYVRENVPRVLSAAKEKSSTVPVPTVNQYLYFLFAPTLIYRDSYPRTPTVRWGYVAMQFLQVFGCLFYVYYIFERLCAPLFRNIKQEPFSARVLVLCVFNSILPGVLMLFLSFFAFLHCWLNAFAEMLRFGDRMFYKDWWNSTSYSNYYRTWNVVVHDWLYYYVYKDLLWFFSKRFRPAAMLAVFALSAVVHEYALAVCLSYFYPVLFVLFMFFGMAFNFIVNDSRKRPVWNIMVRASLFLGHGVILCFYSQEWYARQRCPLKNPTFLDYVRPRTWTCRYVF
Experiment: Inhibition of enzymatic esterification of cholesterol (ACAT) in rat adrenal supernatant containing the microsomal fraction
Format: biochemical
Settings: final concentration of test compound 5.2 μg./ml., 14C-oleoyl CoA, 37° C., read-out: % INHIBITION (percent inhibition of the ACAT enzyme as compared to control values)
Method: The compounds of the present invention were tested for their ability to inhibit the enzymatic esterification of cholesterol according to the following procedure:
Rat adrenals were homogenized in 0.2M monobasic potassium phosphate buffer, pH 7.4, and centrifuged at 1,000 times gravity for 15 minutes at 5° C. The supernatant, containing the microsomal fraction, served as the source of the cholesterol-esterifying enzyme, fatty acyl CoA:cholesterol acyl transferase (ACAT). A mixture comprising 50 parts of adrenal supernatant, 10 parts of albumin (BSA) (50 mg./ml.), 20 parts of oleoyl CoA (^14 C-0.4 μCi), 3 parts of test compound, and 500 parts of buffer was pre-incubated at 37° C. for 10 minutes. After treatment with 20 parts of oleoyl CoA (^14 C-0.4 μCi), the mixture was incubated at 37° C. for 10 minutes. A control mixture, omitting the test compound, was prepared and treated in the same manner. The lipids from the incubation mixture were extracted into an organic solvent and separated by thin-layer chromatography. The cholesterol ester fraction was counted in a scintillation counter. This procedure is a modification of that described by Hashimoto, et al., Life Scie., 12 (Part II), 1-12 (1973).
The results of this test on representative compounds of this invention appear in Table I. The final concentration of the test compound was 5.2 μg./ml., and effectiveness of the compound is expressed as percent inhibition of the ACAT enzyme as compared to control values.

SMILES	inhibition at 5.2 µg/mL
O=C(C=C1c2ccccc2C=Cc2ccccc21)Nc1ccc(C(=O)O)cc1 [4-(5H-Dibenzo[a,d]cycloheptene-Δ^5,α -acetamido) benzoic acid]	47%
O=C(CC1c2ccccc2Sc2ccccc21)Nc1ccc(C(=O)O)cc1 [4-[Thioxanthene-9-acetamido]benzoic acid, 4-[(9-Thioxanthenyl)acetamido]benzoic acid]	37%
CCOC(=O)c1ccc(NC(=O)C=C2c3ccccc3C=Cc3ccccc32)cc1 [Ethyl 4-(5H-dibenzo[a,d]cycloheptene-Δ^5,α -acetamido) benzoate]	20%
CCOC(=O)c1ccc(NC(=O)CC2c3ccccc3Sc3ccccc32)cc1 [Ethyl 4-[(9-thioxanthenyl)acetamido]benzoate]	9%
O=C(C=C1c2ccccc2CCc2ccccc21)Nc1ccc(C(=O)O)cc1 [p-(10,11-Dihydro-5H-dibenzo[a,d]cycloheptene-Δ^5,α -acetamido)benzoic acid]	51%
